Tests used:
[1] = tested on: colorectal cancer cells (结直肠癌细胞); details: cited from earlier work
Cal-27 cells [2] = test: CX-4945-induced vacuolization, phase-contrast microscopy (Experimental Example 1, Fig. 1a); type: cell-based; details: 20μM CX-4945, 12h
HSC-4 cells = test: as above; type: cell-based; details: 20μM CX-4945, 12h
CK2 = CK2 (Homo sapiens, UniProt P68400); details: cited from earlier work
HSC-3 cells = test: CX-4945-induced vacuolization, phase-contrast microscopy (Experimental Example 1, Fig. 1a); type: cell-based; details: 40μM CX-4945, 12h
UM1 cells = test: as above; type: cell-based; details: 40μM CX-4945, 12h
Cal-27 cells [3] = test: Macropinocytosis marker Dextran AF488 uptake and organelle probe co-localization, confocal microscopy (Experimental Example 1, Fig. 1b-1e); type: cell-based
[4] = tested on: cholangiocarcinoma cells (胆管癌细胞); details: cited from earlier work
[5] = tested on: non-small cell lung cancer cells (非小细胞肺癌细胞); details: cited from earlier work

CK2, sequence (P68400 whole entry): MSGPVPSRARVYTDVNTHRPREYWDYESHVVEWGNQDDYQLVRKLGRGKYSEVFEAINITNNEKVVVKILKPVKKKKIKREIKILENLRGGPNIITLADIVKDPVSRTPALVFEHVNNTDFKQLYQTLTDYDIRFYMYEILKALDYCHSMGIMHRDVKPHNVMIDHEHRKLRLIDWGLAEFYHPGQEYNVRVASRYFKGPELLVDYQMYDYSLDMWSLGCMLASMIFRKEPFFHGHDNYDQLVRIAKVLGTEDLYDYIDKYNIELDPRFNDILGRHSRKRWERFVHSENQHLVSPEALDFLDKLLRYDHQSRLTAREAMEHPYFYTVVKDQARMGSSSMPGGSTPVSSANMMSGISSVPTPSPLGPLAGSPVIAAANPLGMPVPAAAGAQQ

## O=C(O)c1ccc2c(c1)nc(Nc1cccc(Cl)c1)c1ccncc12 [CX-4945]
[1]
  induction of macropinocytosis: 可诱导巨胞饮的发生
Cal-27 cells [2]
  vacuole formation: 均产生了空泡
HSC-4 cells
  vacuole formation: 均产生了空泡
CK2
  selectivity as CK2 inhibitor: 高度选择性
HSC-3 cells
  vacuole formation: 均产生了空泡
UM1 cells
  vacuole formation: 均产生了空泡
Cal-27 cells [3]; 10μM CX-4945, 0.5mg/mL Dextran AF488, 12h
  Dextran AF488 uptake in vacuoles: 大多数空泡内都摄入了大量的Dextran AF488,呈现Dextran AF488阳性
Cal-27 cells [3]; 10μM CX-4945, 0.5mg/mL Dextran AF488, ER-tracker, 12h
  co-localization of Dextran AF488-positive vacuoles with endoplasmic reticulum: 不与内质网共定位
Cal-27 cells [3]; 10μM CX-4945, 0.5mg/mL Dextran AF488, Lyso-tracker, 12h
  co-localization of Dextran AF488-positive vacuoles with lysosomes: 有一部分与溶酶体共定位
Cal-27 cells [3]; 10μM CX-4945, 0.5mg/mL Dextran AF488, Mito-tracker, 12h
  co-localization of Dextran AF488-positive vacuoles with mitochondria: 不与线粒体共定位
[4]
  induction of macropinocytosis: 可诱导巨胞饮的发生
[5]
  induction of macropinocytosis: 可诱导巨胞饮的发生

— CN115227715A, “一种用于治疗癌症的联合用药物和药物组合物” (priority 2021, dated 2022)
